Legend:
[1] = molecular target: T1, Integrin alpha-4/beta-7 (Homo sapiens, UniProt P13612+P26010); test: Inhibition of [125I]-VCAM-Ig binding to human integrin alpha4-beta7 receptor in RPMI-8866 cells; assay type: cell-based
T1 sequence (P13612 whole entry): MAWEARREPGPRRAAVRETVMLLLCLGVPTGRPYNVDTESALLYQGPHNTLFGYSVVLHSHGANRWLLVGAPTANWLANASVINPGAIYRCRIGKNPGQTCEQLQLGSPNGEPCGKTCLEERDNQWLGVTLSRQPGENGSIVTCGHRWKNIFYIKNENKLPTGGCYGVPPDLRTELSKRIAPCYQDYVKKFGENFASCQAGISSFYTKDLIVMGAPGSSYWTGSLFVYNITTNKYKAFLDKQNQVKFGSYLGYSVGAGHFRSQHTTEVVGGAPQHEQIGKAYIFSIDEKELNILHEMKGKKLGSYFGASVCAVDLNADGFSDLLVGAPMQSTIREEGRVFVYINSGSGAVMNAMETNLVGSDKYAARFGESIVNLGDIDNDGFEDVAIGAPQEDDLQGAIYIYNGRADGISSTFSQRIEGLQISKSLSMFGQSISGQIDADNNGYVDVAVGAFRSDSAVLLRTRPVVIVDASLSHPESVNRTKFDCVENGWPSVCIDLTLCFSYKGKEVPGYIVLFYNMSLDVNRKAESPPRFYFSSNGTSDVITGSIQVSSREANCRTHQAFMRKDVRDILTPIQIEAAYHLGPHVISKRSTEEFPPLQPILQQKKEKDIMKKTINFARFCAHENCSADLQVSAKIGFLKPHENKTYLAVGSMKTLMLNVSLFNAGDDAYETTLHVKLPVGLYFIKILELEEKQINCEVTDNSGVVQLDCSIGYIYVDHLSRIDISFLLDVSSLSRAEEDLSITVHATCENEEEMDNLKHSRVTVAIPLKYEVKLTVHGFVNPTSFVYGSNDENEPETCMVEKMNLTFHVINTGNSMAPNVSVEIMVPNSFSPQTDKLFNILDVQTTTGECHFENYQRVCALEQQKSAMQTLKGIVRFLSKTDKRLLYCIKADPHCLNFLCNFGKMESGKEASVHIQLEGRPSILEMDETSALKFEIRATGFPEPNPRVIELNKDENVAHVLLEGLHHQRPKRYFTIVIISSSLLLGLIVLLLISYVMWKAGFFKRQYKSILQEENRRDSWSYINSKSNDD
T1 sequence (P26010 whole entry): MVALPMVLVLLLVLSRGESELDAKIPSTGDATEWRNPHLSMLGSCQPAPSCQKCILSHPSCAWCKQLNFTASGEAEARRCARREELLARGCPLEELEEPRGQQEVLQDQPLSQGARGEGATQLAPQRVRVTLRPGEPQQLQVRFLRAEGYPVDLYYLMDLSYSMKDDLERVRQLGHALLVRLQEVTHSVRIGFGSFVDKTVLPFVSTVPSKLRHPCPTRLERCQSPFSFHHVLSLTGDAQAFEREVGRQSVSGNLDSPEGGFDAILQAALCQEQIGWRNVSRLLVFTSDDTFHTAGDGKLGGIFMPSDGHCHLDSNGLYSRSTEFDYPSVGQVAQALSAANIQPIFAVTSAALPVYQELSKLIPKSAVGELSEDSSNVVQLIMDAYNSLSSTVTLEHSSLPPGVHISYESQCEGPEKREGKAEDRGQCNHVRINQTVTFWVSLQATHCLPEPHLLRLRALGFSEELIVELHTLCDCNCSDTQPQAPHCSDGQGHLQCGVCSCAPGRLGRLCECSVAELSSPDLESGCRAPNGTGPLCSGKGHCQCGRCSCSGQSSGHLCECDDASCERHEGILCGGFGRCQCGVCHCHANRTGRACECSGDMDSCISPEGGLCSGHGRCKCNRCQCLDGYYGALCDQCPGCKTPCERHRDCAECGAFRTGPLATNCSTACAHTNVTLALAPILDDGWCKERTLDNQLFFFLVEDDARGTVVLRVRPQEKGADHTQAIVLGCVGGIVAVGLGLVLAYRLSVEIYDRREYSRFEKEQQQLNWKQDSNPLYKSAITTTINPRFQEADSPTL

[2] = molecular target: Integrin alpha-4/beta-1 (Homo sapiens, UniProt P05556+P13612); test: Binding affinity towards VLA-4 (alpha4 beta-1) receptor in human Jurkat cells using [125I]VCAM-Ig as radioligand; assay type: cell-based
Integrin alpha-4/beta-1, sequence (P05556 whole entry, one chain of several): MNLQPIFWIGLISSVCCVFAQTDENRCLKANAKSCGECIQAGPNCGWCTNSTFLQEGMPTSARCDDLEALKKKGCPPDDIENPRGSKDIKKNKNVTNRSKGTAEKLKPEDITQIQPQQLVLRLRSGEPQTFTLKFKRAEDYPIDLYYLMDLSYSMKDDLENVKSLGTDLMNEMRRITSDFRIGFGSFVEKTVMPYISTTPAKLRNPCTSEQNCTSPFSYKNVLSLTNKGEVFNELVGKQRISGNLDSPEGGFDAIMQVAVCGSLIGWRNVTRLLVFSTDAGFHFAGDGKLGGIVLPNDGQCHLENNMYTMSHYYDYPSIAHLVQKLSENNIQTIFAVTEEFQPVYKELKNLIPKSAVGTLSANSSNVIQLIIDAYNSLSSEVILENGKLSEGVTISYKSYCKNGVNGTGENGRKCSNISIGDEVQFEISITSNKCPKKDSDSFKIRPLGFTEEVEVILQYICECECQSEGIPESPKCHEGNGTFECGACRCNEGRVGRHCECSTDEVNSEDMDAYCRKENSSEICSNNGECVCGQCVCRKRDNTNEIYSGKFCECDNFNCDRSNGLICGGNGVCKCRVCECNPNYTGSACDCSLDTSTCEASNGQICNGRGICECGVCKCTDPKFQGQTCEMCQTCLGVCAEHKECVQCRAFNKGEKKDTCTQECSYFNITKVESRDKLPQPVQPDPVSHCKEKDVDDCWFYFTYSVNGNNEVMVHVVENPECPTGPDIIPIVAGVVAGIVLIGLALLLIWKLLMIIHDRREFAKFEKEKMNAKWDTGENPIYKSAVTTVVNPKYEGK

[3] = Plasma clearance was evaluated at 1 mg/kg of iv administration in Sprague-Dawley rats; assay type: ADME, organism-based; set-up: dose 1 mg/kg, route intravenous; settings: rat, read-out: Clp
[4] = Oral bioavailability in rat (Sprague-Dawley) (dose 2 mg/kg); assay type: ADME, organism-based; settings: in vivo
[5] = molecular target: T1, Integrin alpha-4/beta-7; test: Binding affinity towards […] receptor in human RPMI-8866 B-cell line using [125I]MAdCAM-Ig as radioligand
[6] = Half life time was evaluated at 1 mg/kg of iv administration in Sprague-Dawley rats; assay type: ADME, organism-based; set-up: dose 1 mg/kg, route intravenous; settings: rat, in vivo
[7] = molecular target: T2, Integrin alpha-4/beta-7 (Homo sapiens) (UniProt P13612+P26010); test: Percent inhibition of [125I]VCAM-Ig binding to human integrin alpha4-beta7 receptor of RPMI-8866 cells at 100 nM; assay type: cell-based
[8] = molecular target: T2, Integrin alpha-4/beta-7 (Homo sapiens); test: Percent inhibition of [125I]MAdCAM-Ig binding to human integrin alpha4-beta7 receptor of RPMI-8866 cells at 100 nM; assay type: cell-based

| SMILES | IC50 [1] [nM] | IC50 [2] [nM] | further results |
| --- | --- | --- | --- |
| COc1ccccc1-c1ccc(C[C@H](NC(=O)C2(S(=O)(=O)C3CCCCC3)CCCC2)C(=O)O)cc1 | 52 | 1.1 |  |
| O=C(Nc1ccc(C[C@H](NC(=O)C2(S(=O)(=O)c3ccccc3)CCOCC2)C(=O)O)cc1)c1c(Cl)cccc1Cl |  | 0.22 | clearance [3]: 48 mL/min/kg; bioavailability [4]: 1%; IC50 [5]: 20 nM; half-life [6]: 36 min |
| COc1ccccc1-c1ccc(C[C@H](NC(=O)C2(S(=O)(=O)c3ccccc3)CCCC2)C(=O)O)cc1 | 83 | 0.33 |  |
| COc1cccc(OC)c1-c1ccc(C[C@H](NC(=O)C2(S(=O)(=O)c3ccccc3)CCCNC2)C(=O)O)cc1 (stereo not given in full) |  | 0.09 | clearance [3]: 46 mL/min/kg; bioavailability [4]: 1%; IC50 [5]: 168 nM; half-life [6]: 30 min |
| O=C(O)[C@H](Cc1ccc(-c2ccccc2)cc1)NC(=O)C1(S(=O)(=O)c2ccccc2)CC=CC1 |  | 275 | inhibition [8]: 7% |
| COc1ccccc1-c1ccc(C[C@H](NC(=O)C2(S(=O)(=O)c3ccc(C)cc3)CCCCC2)C(=O)O)cc1 | 91 | 1.5 |  |
| COc1ccccc1-c1ccc(C[C@H](NC(=O)C2(S(=O)(=O)c3ccc(Cl)cc3)CCCCC2)C(=O)O)cc1 | 53 | 1.1 |  |
| O=C(O)[C@H](Cc1ccc(-c2ccccc2)cc1)NC(=O)C1(S(=O)(=O)c2ccccc2Br)CCCC1 |  | 105 | inhibition [7]: 8% |
| O=C(O)[C@H](Cc1ccc(-c2ccccc2)cc1)NC(=O)C1(S(=O)(=O)c2ccc(Br)cc2)CCCCC1 |  | 44 | inhibition [7]: 19% |

Further molecules by falling IC50 [2], results first:

| IC50 [1] [nM] | IC50 [2] [nM] | SMILES | further results |
| --- | --- | --- | --- |
|  | 735 | O=C(O)[C@H](Cc1ccc(-c2ccccc2)cc1)NC(=O)C1(S(=O)(=O)c2cccc3ccccc23)CCCC1 | inhibition [7]: 7% |
|  | 53 | Cc1ccc(S(=O)(=O)C2(C(=O)N[C@@H](Cc3ccc(-c4ccccc4)cc3)C(=O)O)CCCCC2)cc1 | inhibition [7]: 0% |
|  | 45 | O=C(O)[C@H](Cc1ccc(-c2ccccc2)cc1)NC(=O)C1(S(=O)(=O)c2ccccc2Br)CCCCC1 | inhibition [7]: 13% |
| 149 | 2.7 | COc1ccccc1-c1ccc(C[C@H](NC(=O)C2(S(=O)(=O)c3ccccc3C)CCCCC2)C(=O)O)cc1 |  |
| 77 | 1 | COc1ccccc1-c1ccc(C[C@H](NC(=O)C2(S(=O)(=O)c3cccc(C)c3)CCCCC2)C(=O)O)cc1 |  |
| 25 | 0.75 | COc1ccccc1-c1ccc(C[C@H](NC(=O)C2(S(=O)(=O)c3ccc(F)cc3)CCCCC2)C(=O)O)cc1 |  |
| 19 | 0.47 | COc1ccccc1-c1ccc(C[C@H](NC(=O)C2(S(=O)(=O)C(C)(C)C)CCCC2)C(=O)O)cc1 |  |
| 4 | 0.21 | COc1ccccc1-c1ccc(C[C@H](NC(=O)C2(S(=O)(=O)c3nccn3C)CCCC2)C(=O)O)cc1 |  |
|  | 0.19 | O=C(Nc1ccc(C[C@H](NC(=O)C2(S(=O)(=O)c3ccccc3)CCCNC2)C(=O)O)cc1)c1c(Cl)cccc1Cl (stereo not given in full) | clearance [3]: 78 mL/min/kg; bioavailability [4]: 0%; IC50 [5]: 22 nM; half-life [6]: 18 min |
|  | 0.16 | COc1cccc(OC)c1-c1ccc(C[C@H](NC(=O)C2(S(=O)(=O)c3ccccc3)CCOCC2)C(=O)O)cc1 | clearance [3]: 133 mL/min/kg; bioavailability [4]: 3%; IC50 [5]: 38 nM; half-life [6]: 48 min |

From ChEMBL document CHEMBL1145739, “N-(3-phenylsulfonyl-3-piperidinoyl)-phenylalanine derivatives as potent, selective VLA-4 antagonists” (Bioorg Med Chem Lett, 2003)
